Assay results reported in patent US7923573B2, “Benzene compound having 2 or more substituents” (Daiichi Sankyo Company, Limited, priority 2004, dated 2011).
pEC50: −log10 of the molar value.

Each compound was assayed against T1, LXRα (Homo sapiens, UniProt Q13133) (assay: Co-transfection assay (LXR/LXRE luciferase reporter), LXRα). Conditions: CV-1 cells transfected with hLXRα and LXRE luciferase reporter; agonist activity; read-out: EC50 value against LXRα.
T1 construct: expressed in transfected cells; host or cells: CV-1 African green monkey kidney cells (ATCC CCL-70)
T1 sequence (Q13133 1-447): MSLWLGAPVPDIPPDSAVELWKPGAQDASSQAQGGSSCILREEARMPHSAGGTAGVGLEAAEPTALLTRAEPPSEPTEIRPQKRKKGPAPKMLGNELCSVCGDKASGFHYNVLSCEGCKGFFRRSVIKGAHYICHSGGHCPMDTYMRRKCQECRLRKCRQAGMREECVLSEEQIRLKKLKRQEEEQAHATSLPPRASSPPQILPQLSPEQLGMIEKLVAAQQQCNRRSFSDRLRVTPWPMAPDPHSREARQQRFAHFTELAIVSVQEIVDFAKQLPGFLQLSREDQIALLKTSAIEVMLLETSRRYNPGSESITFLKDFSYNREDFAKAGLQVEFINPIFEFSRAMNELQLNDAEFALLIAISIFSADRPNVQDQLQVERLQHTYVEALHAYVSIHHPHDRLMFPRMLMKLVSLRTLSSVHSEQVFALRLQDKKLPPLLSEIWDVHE
T1 sequence (P19793 1-462 partner): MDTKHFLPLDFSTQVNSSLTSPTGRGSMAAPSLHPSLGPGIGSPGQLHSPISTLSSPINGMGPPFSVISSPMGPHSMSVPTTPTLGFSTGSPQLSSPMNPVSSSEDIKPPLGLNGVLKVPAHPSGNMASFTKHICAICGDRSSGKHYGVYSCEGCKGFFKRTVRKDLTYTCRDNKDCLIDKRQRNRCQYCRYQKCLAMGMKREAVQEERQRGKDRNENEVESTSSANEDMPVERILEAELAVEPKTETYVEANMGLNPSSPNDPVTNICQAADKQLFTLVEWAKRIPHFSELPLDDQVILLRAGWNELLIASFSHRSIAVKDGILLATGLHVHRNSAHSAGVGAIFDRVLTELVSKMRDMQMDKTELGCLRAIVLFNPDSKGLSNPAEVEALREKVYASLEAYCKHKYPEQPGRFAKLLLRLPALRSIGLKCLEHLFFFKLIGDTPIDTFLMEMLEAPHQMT
Assay type: cell-based
Source text: The effect of activating or inhibiting LXR transcription activity of a test compound can be measured by a co-transfection which is a cell-based assay. LXR is known to function by forming a heterodimer with RXR. In a co-transfection assay, LXR and RXR expression plasmids and a luciferase reporter expression plasmid containing three copies of an LXR-RXR heterodimer-responding DNA sequence are first inserted into mammalian cells by transient transfection. Next, when the transfected cells are treated with a test compound having LXR agonist activity, the transcription activating effect of LXR is enhanced, and the LXR agonist activity of a test compound can be measured as an increase in luciferase activity.
(1) CV-1 African green monkey kidney cells (ATCC CCL-70)
(2) Co-transfection expression plasmid, pcDNA-hLXRα or pcDNA-hLXRβ, reporter (LXREx3-pTAL-Luc Vector)
(3) Lipofect AMINE, Plus Reagent (Invitrogen) transfection reagent
(4) Cell lysis buffer [Passive lysis buffer; 5× (Promega Corporation) is diluted with distilled water]
(5) Luciferase assay reagent (Promega Corporation)
(6) Medium (Dulbecco's Modified Eagle Medium (Gibco) 500 ml, Gentamicin Reagent Solution (Gibco) 2.5 ml, 2 mM L-Gluta Max I Supplement (Gibco) 5.0 ml, MEM Sodium pyruvate solution (Gibco) 5.0 ml, penicillin-streptomycin (Gibco) 5.0 ml, charcoal/dextran-treated FBS (HyClone) 50 ml) (7) OPTI-MEM I Reduced-Serum Medium (Gibco) Adjustment of Screening Reagents
The aforementioned CV-1 cells were disseminated into a 96-well assay plate (Costar 3610) to a concentration of 2×10^4 cells/[…]/well followed by incubating overnight at 37° C.
DNA transfection was carried out according to the protocol provided with the transfection reagent. 10 μl of OPTI-MEM I Reduced-Serum Medium (Gibco) and 0.5 μl of Lipofect AMINE (Invitrogen) were added to two 50 ml tubes followed by shaking the mixed solutions to obtain Solution A. The substances of (1) below were respectively added to each tube followed by shaking the mixed solutions and allowing to stand undisturbed for 15 minutes to obtain Solution B. In addition, Solution C was obtained by carrying out the same procedure using the substances of (2) below.
(1) 10 μl of OPTI-MEM I Reduced-Serum Medium, 1 μl of Plus Reagent (Invitrogen) and 0.1 μg of DNA [PCMX-LXRα (33 ng) and LXRE (66 ng)];
(2) 10 μl of OPTI-MEM I Reduced-Serum Medium, 1 μl of Plus Reagent (Invitrogen) and 0.1 μg of DNA [PCMX-LXRβ (33 ng) and LXRE (66 ng)].
The entire amount of the aforementioned Solution A was respectively added to the aforementioned Solution B followed by shaking and allowing to stand undisturbed for 15 minutes to obtain LXRα solution. In addition, LXRβ solution was obtained by carrying out the same procedure using the aforementioned Solutions C and A.
After removing the medium from the 96-well assay plate used to Incubate the CV-1 cells as described above by decanting, and completely removing any moisture, 50 μl/well of OPTI-MEM I Reduced-Serum Medium were added to each well followed by addition of the aforementioned LXRα solution or LXRβ solution to each well at 20 μl/well and incubating for 3 hours at 37° C.
Three hours later, 20% charcoal FBS-DMEM was added to each well at 70 μl/well. FBS-DMEM used for the medium was prepared by mixing charcoal and dextran-treated FBS at a ratio of 9:1. Next, test compounds adjusted to concentrations of 1 mM, 0.3 mM, 0.1 mM, 30 μM, 10 μM, 3 μM, 1 μM or 0 μM with DMSO were added to each well at 1.4 μl/well. […]

| Structure (SMILES) | pEC50 |
| --- | --- |
| CC(C)(C)OC(=O)c1c(COc2ccc(-c3ccc(CC(=O)O)cc3)c(F)c2)ccc(C(F)(F)F)c1O [Example 14, (4′-{[2-(tert-Butoxycarbonyl)-3-hydroxy-4-(trifluoromethyl)benzyl]oxy}-2′-fluoro-1,1′-biphenyl-4-yl)acetic acid] | ≥ 5.30 |
| CN(C)C(=O)Cc1ccc(-c2ccc(OCc3ccc(C(F)(F)F)c(O)c3C(=O)OC(C)(C)C)cc2)cc1 [Example 49, tert-Butyl 6-[({4′-[2-(dimethylamino)-2-oxoethyl]-1,1′-biphenyl-4-yl}oxy)methyl]-2-hydroxy-3-(trifluoromethyl)benzoate] | ≥ 5.30 |
| CC(C)(C)OC(=O)c1c(COc2ccc(-c3cc(CC(=O)O)ccc3F)cc2)ccc(C(F)(F)F)c1O [Example 52, (4′-{[2-(tert-Butoxycarbonyl)-3-hydroxy-4-(trifluoromethyl)benzyl]oxy}-6-fluoro-1,1′-biphenyl-3-yl)acetic acid] | ≥ 5.30 |
| CC(C)(C)OC(=O)c1c(COc2ccc(-c3ccc(C4(C(=O)O)CC4)cc3)cc2)ccc(C(F)(F)F)c1O [Example 15, 1-(4′-{[2-(tert-Butoxycarbonyl)-3-hydroxy-4-(trifluoromethyl)benzyl]oxy}-1,1′-biphenyl-4-yl)cyclopropanecarboxylic acid] | ≥ 5.30 |
| CNC(=O)Cc1ccc(-c2ccc(OCc3ccc(C(F)(F)F)c(O)c3C(=O)OC(C)(C)C)cc2)cc1 [Example 50, tert-Butyl 2-hydroxy-6-[({4′-[2-(methylamino)-2-oxoethyl]-1,1′-biphenyl-4-yl}oxy)methyl]-3-trifluoromethylbenzoate] | ≥ 5.30 |
